A short description of this data set: Separation of switchable solvent from soybean oil with CO2/carbonated water (Examples 2A, 2C). Type of data set: physicochemical. How it is done:
A 4 mL vial was prepared containing 1.0 mL D2O, 0.5 mL BA and 0.5 mL soybean oil. The vial was shaken thoroughly and allowed to settle, showing a 1.0 mL upper layer (soybean oil and BA) and a 1.0 mL lower layer (D2O). ^1H NMR samples (50 μL) were withdrawn from each layer and mixed with methanol-d4 (0.5 mL) containing a dioxane internal standard (51.5 mM). Another sample was withdrawn from the upper layer for ^1H NMR analysis in CDCl3, because soybean oil is not miscible with methanol. The same volume was discarded from the bottom layer to maintain the initial ratio.
CO2 was bubbled through the system for 1.5 h, at which time the top layer appeared to have halved in volume. Using the same system, ^1H NMR analysis was again conducted on both layers, the bottom layer in methanol-d4 and the top layer in CDCl3.
A 1.0 mL portion of the bottom layer was withdrawn and transferred to a new 4.0 mL vial. A magnetic stirrer was added and the vial was stirred at 80° C. for 1 h. Samples were withdrawn from both layers for ^1H NMR analysis in methanol-d4 with reference to the dioxane internal standard.
The switching behavior of BA in the presence of soybean oil was studied qualitatively and by ^1H NMR spectroscopy as shown in FIG. 11. The top spectrum is that of soy oil. The middle spectrum is that of the upper (organic) phase after the mixing of the BA, soy oil and D2O. This upper phase comprises soy oil and BA. The bottom spectrum is that of the upper (organic) phase after the addition of the CO2 trigger and comprises predominantly soy oil and any residual solvent.
The most informative ^1H NMR spectra in this experiment were those showing the separation of the soy oil and BA. Based on the integration of the peak corresponding to BA at 3.17 ppm in these spectra, 96% of the amidine was removed from the upper soybean oil layer after switching to its hydrophilic BAB form. Other spectra (not shown), collected in methanol-d4 with a dioxane internal standard, confirmed the switching behavior presented in Example 1 above, showing 11% retention of BA in the aqueous phase after heating.
It was possible to remove a high percentage of N1,N1,N4,N4-tetraethylbutane-1,4-diamine from the soybean oil be mixing with carbonated water. The percentage removal was 98.65%. In contrast, 96% of BA was removed from the soybean oil.

Entries after “also recorded” stand apart in the source; their conditions may differ.

The values that follow come from US8900444B2, “Switchable hydrophilicity solvents and methods of use thereof” (Queen's University at Kingston, priority 2009, dated 2014).

With `CCCCN=C(CCCC)N(CCCC)CCCC` [BA, N,N,N′-tributylpentanamidine], the “solvent removed from soybean oil after switching to hydrophilic form” value (CO2 / carbonated water) came out at 96%. Further, where the note is “neutral hydrophobic form”, the “miscibility with soybean oil” value is reported as “miscible with soy oil; also recorded: miscible with soybean oil”. For the setting “soybean oil experiment, 80 °C, 1 h, dioxane internal standard”, the “retention of BA in the aqueous phase after heating” value is on record as 11%.
